50 compounds from PubChem BioAssay AID504657 (Sanford-Burnham Center for Chemical Genomics, 2011) can be followed below.

Activity calls are given as the source filed them. No rule for the calls is given here.

The test system of the experiment is S. cerevisiae tim10-1 mutant, luminescence counterscreen. In words: inhibitors in tim10-1 mutant yeast luminescence, dose response, counter-screen for tim23-1 inhibitor project, S. cerevisiae, uHTS hits (AID 504657).
For the compound `Cc1nc2scc(C)n2c(=O)c1S(=O)(=O)Nc1ccc(N2CCOCC2)cc1`, the IC50 (in general, the concentration needed to halve the response being measured) was > 100 µM (inactive). Under `O=C(Nc1ccc2nc(-c3ccc(Br)o3)[nH]c2c1)c1cccs1` stands > 100 µM (inactive); under `Cc1ccc(Nc2nc(-c3cccnc3)nc3ccccc23)cc1`, > 100 µM (inactive); under `Cc1ccc(-c2nn(-c3ccccc3)cc2NC(=O)CCl)cc1`, > 100 µM (inactive).

As for `CCn1c(N2CCN(S(=O)(=O)c3ccc(OC)cc3)CC2)nc2ccccc21`, the IC50 is > 100 µM (inactive). Under `O=C(CSc1cccc[n+]1[O-])Nc1ccccc1Oc1ccccc1` stands > 100 µM (inactive); under `O=c1c(O)c(-c2ccccc2)oc2cc(O)cc(O)c12`, > 100 µM (inactive); under `Cc1ccc(CS(=O)(=O)c2ncc(Cl)c(C(=O)Nc3ccc(OC(F)F)cc3)n2)cc1`, > 100 µM (inactive). The value for `N#Cc1c(-c2ccccc2)cc(-c2ccc(O)cc2)nc1N` was > 100 µM (inactive); that for `CCCCn1c(N)c(N(CCC(C)C)C(=O)c2ccc3c(c2)OCO3)c(=O)[nH]c1=O` was > 100 µM (inactive). The value for `O=C(Nc1nc2ccccc2s1)C1CCCN1S(=O)(=O)c1ccc(Cl)cc1` (stereo not given) was > 100 µM (inactive). Consider `O=C(N/N=C/c1coc2ccc(Cl)cc2c1=O)c1ccncc1`, for which the IC50 was > 100 µM (inactive). Under `COc1ccc2c(c1)sc1nc(-c3ccccc3)cn12` stands > 100 µM (inactive); under `Cc1ccc2[nH]cc(C(=O)CCl)c2c1`, > 100 µM (inactive). Under `N#C/C(=C\c1ccc(Cl)cc1)C(=O)Nc1cccnc1` stands > 100 µM (inactive); under `Cc1cc2cc(CNC(=O)c3ccc(C)c([N+](=O)[O-])c3)ccc2[nH]1`, > 100 µM (inactive). Under `O=C1OC(c2ccccc2)=N/C1=C\C=C\c1ccco1` stands > 100 µM (inactive); under `CO/C(N)=C(\C#N)N=Cc1ccccc1Cl`, > 100 µM (inactive). As for `CSc1nnc(C(C)(C)C)c(=O)n1/N=C/c1ccccc1`, the IC50 was > 100 µM (inactive).

For the compound `O=C(Nc1cc(-c2ccccc2)[nH]n1)c1ccccc1`, the IC50 was > 100 µM (inactive). `COc1ccc(C(=O)N/N=C\c2coc3ccc(Cl)cc3c2=O)cc1`: the IC50 was > 100 µM (inactive). Under `Cc1ccc2nc(N3C(=O)CNC3=S)sc2c1` stands > 100 µM (inactive); under `O=C(/C=C/c1ccccc1Cl)Nc1ccccc1`, > 100 µM (inactive). Under `CN(C)/C=C1/C=C(c2ccccc2)OC1=O` stands 94.1 µM; under `CCN(CC)S(=O)(=O)c1ccc(C(=O)OCn2nnc3ccccc3c2=O)cc1`, > 100 µM (inactive). The value for `CCOC(=O)c1sc(=NC(=O)c2ccco2)n(C)c1C` was > 100 µM (inactive); that for `CCCN(C(=O)c1ccc([N+](=O)[O-])c(C)c1)c1c(N)n(Cc2ccccc2)c(=O)[nH]c1=O` was > 100 µM (inactive). For `CC(C)(C)c1csc(NC(=O)c2ccc(Cl)s2)n1`, the IC50 was > 100 µM (inactive). For the compound `CCOC(=O)c1cccnc1SCc1cc(=O)n2ccccc2n1`, the IC50 was > 100 µM (inactive). The value for `O=c1cc(C(Cl)(Cl)Cl)oc2c1ccc1ccccc12` was > 100 µM (inactive); that for `O=C(N/N=C/C=C\c1ccco1)c1cccs1` was > 100 µM (inactive); that for `CN1CCc2nc3sc(C(=O)C45CC6CC(CC(C6)C4)C5)c(N)c3cc2C1` was > 100 µM (inactive). Under `CC(C)Cn1cnc2c(c(-c3ccccc3)c(-c3ccccc3)n2Cc2ccco2)c1=N` stands > 100 µM (inactive); under `Oc1ccc(Oc2ccc(Oc3ccc(O)cc3)cc2)cc1`, > 100 µM (inactive). Under `COc1ccc(/C=C/C(=O)Nc2ccc3c(c2)CCC3)cc1OC` stands > 100 µM (inactive). As for `Cc1nc2scc(C)n2c(=O)c1S(=O)(=O)Nc1ccc(OC(F)(F)F)cc1`, the IC50 was > 100 µM (inactive). Under `O=c1oc(Cl)c(Cl)c2ccccc12` stands > 100 µM (inactive); under `O=C(N/N=C/C(Cl)=C\c1ccccc1)c1cccs1`, > 100 µM (inactive).

For the compound `Cc1nc2ccc(C(C(F)(F)F)(C(F)(F)F)C(F)(F)F)cc2[nH]1`, the IC50 is > 100 µM (inactive). Take `O=C(N/N=C/c1coc2ccc(Cl)cc2c1=O)c1cc(O)cc(O)c1`: the IC50 is > 100 µM (inactive). The value for `C=C1CCc2c([nH]c3ccc(OCC(C)C)cc23)C1=O` was > 100 µM (inactive); that for `Cc1cc(C)nc(SCC(=O)c2cc3ccccc3oc2=O)n1` was > 100 µM (inactive). Under `CCOC(=O)c1ccc(NC(=O)CSc2nc(=O)n3cccc(C)c3n2)cc1` stands > 100 µM (inactive); under `O=C(Nc1ccc(-c2cn3c(n2)SCC3)cc1)c1ccco1`, > 100 µM (inactive).

Regarding `CC(C)OC(=O)c1cccnc1SCc1cc(=O)n2ccccc2n1`, the IC50 was > 100 µM (inactive). The value for `O=C(Nc1ccc(-c2cn3ccccc3n2)cc1)c1cccs1` was > 100 µM (inactive); that for `COc1cc2c(cc1OC)/C(=C/c1ccc(Cl)cc1)C(=O)OC2` was > 100 µM (inactive). Under `C(=C\c1ccccc1)/C=N/Nc1nc2ccccc2[nH]1` stands > 100 µM (inactive); under `Oc1ccccc1C1NN=C(c2ccccc2)S1` (stereo not given), > 100 µM (inactive). Turning to `N#C/C(=C/c1ccc(N2CCOCC2)o1)c1nc2ccccc2[nH]1`, the IC50 was > 100 µM (inactive).
